The results in this text go back to patent US20230321106A1, “USE OF TOPICAL BRAF INHIBITOR COMPOSITIONS FOR TREATMENT OF EPIDERMAL GROWTH FACTOR RECEPTOR DOWNSTREAM EFFECTORS - INDUCED CUTANEOUS REACTIONS” (Lutris Pharma Ltd., priority 2020, published 2023).

Structures are written as SMILES.

Data set [1] in a line: Phase 1 clinical trial: plasma pharmacokinetics (LC-MS/MS). In kind it is in vivo, human. As to conditions: patients, topical gel; for systemic absorption / exposure after topical administration: plasma. As to the method: Blood samples for PK analysis were taken from the initial three patients enrolled to each dosing cohort (total 9 patients). PK samples were collected pre-dose on day 0 and day 7 and at 1, 2, 4, 8 and 24 hours post-dose. A qualified liquid chromatography tandem mass spectroscopy LC-MS/MS analytical assay with an LLOQ of 10 pg/ml was used to determine concentrations of LUT014 in plasma. Plasma concentrations below the limit of quantitation (<10 pg/mL) were treated as zero for the calculations of mean (SD).
Tabular summaries of the secondary safety assessments included descriptive statistics (i.e., mean, standard deviation, median, and range for continuous data and frequency for categorical data) for each visit assessed, as well as for the calculated changes from baseline. For the pharmacokinetics analyses, plasma LUT014 concentration-time profiles were analyzed by non-compartmental methods and PK parameters were calculated by standard equations, when plasma levels are achieved. PK analyses produced using Phoenix® WinNonLin (Certara, Princeton, NJ). The efficacy assessments NCI CTCAE skin and subcutaneous tissue disorders grading scale, MASCC Study Group EGFR Inhibitor-dermatologic adverse event grading scale, FACT-EGFRI-13 questionnaire, were summarized by treatment group using descriptive statistics as appropriate (i.e., mean, standard deviation, median, and range for continuous data and frequency for categorical data). All analyses were performed using SAS® Software (version 9.2, SAS Institute, Cary, NC).

For data set [2], the system named is anti-EGFR therapy-induced acneiform lesions. Kind of data set: Phase 1 clinical trial: efficacy on acneiform lesions (CTCAE, MASCC, FACT-EGFRI-13). In kind it is in vivo, human. As to the method:
Three scales were used to evaluate the severity of acneiform lesions during the clinical trial period. The primary readout was based on the National Cancer Institute (NCI) Common Terminology Criteria for Adverse Events (CTCAE) version 5.0 for grading acneiform rash. The clinical trial eligibility criteria were based on having an acneiform skin rash of grade 1 or 2 while on anti-EGFR therapy, and therefore the grading change from baseline with the topical application of LUT014 was measured. The Multinational Association of Supportive Care in Cancer (MASCC) Study Group EGFR Inhibitor-dermatologic adverse event grading scale is a central reviewer-assessment based on the review of pictures provided to one remote reviewer (Wong, et al., Support Care Cancer 21, 2933-2948, 2013). The Functional Assessment of Cancer Therapy (FACT) is a health-related quality of life questionnaire to assess symptoms associated with EGFR inhibitors (Wagner, et al., Support Care Cancer 21, 1033-1041, 2013). The score based on the 13 skin-specific questions (FACT-EGFRI-13) was reported, and was calculated by the change in total score relative to baseline, with a decrease in value representing worsening and an increase value representing improvement of skin-related symptoms.
Evaluation of the preliminary efficacy of LUT014 gel for the treatment of anti-EGFR therapy-induced acneiform lesions was based on the following: A) Acneiform lesions grading performed locally by the Investigator using the NCI CTCAE version 5.0 skin and subcutaneous tissue disorders grading scale. B) Acneiform lesions grading performed by a central reader, using the MASCC Study Group EGFR Inhibitor-dermatologic adverse event grading scale (Wong, et al., 2013). Grading was based on masked photographs of patients' face, neck, and upper portion of the anterior and posterior chest. C) Patient self-reported quality of life FACT-EGFRI-13 questionnaire (Wagner et al, 2013), assessing the physical and psychological effects of the dermatological symptoms associated with anti-EGFR treatment on study patients. Only the first 13 questions of the FACT-EGFRI that are relevant for the skin were evaluated. Data from all patients who received at least one dose of study drug were included in the safety and efficacy analyses.

For `Cc1ccc2c(Nc3cccc(OC(F)(F)F)c3)nccc2c1Nc1ncccc1-c1ncnc2[nH]cnc12` [LUT014], in data set [1], the “plasma concentrations lower than effective systemic concentrations of other BRAF inhibitors” value was 3 to 4 orders of magnitude. The plasma concentrations result in data set [1] (day 0 and day 7) is given as “in the pg/mL range”. Also, the “systemic absorption / exposure after topical administration” value in data set [1] (day 0 and day 7) was “negligible absorption and minimal systemic exposure”; in data set [1] (day 0 and day 7, listed as compound of formula IV), “negligible to minimal systemic absorption”. Besides, the “time to CTCAE improvement” value in data set [2] (cohort 1, 0.3 mg/g) was “two of the patients showing improvement within the first week”. Besides, the “FACT-EGFRI-13 skin-related symptom questionnaire change” value in data set [2] (cohort 1, 0.3 mg/g, 28-day treatment) is given as “the three patients had symptomatic improvement”. Also, in data set [2] (cohort 1, 0.3 mg/g, all three patients, day 55), the “benefit after administration had terminated” value was “sustained benefit by day 55”. Moreover, the “acneiform rash CTCAE grade change” value in data set [2] (cohort 1, 0.3 mg/g, three patients with grade 2 at baseline, 28-day treatment) is “all improved to grade 1”; in data set [2] (cohort 2, 1.0 mg/g, patients with grade 1 at baseline), “two with grade 1 at baseline that did not change in grading”; in data set [2] (cohort 2, 1.0 mg/g, patients with grade 2 at baseline, 28-day treatment), “two with grade 2 at baseline that improved to grade 1”; in data set [2] (cohort 3, 2.5 mg/g, three patients, 28-day treatment), “one improved, another was stable and one patient had worsening acneiform skin rash”. In data set [2] (cohort 1, 0.3 mg/g, treatment period), the “central reviewer MASCC grading change” value is “two patients improved and one patient did not change”. In addition, the entries for the “acneiform skin rash, overall” value in data set [2] (cohort 2 (1.0 mg/g)) and in data set [2] (highest dose cohort (2.5 mg/g)) were “evidence of acneiform rash improvement” and “no consistent evidence of improvement”, respectively. The “FACT-EGFRI-13 symptom questionnaire change” value in data set [2] (cohort 2, 1.0 mg/g, baseline grade 1 rash) is “two patients with baseline grade 1 rash reported stable skin-related symptoms”; in data set [2] (cohort 2, 1.0 mg/g, baseline grade 2 rash), “two patients with baseline grade 2 rash improved symptoms”; in data set [2] (cohort 3, 2.5 mg/g), “one patient improved and two worsened”. In addition, the MASCC grading change result in data set [2] (cohort 2, 1.0 mg/g, four patients) is “three patients improved grading during the treatment period while one worsened”; in data set [2] (cohort 3, 2.5 mg/g, compared with the CTCAE course), “The same course was evident”. In addition, the “improvement of acneiform rash in grade 2 patients” value in data set [2] (low and intermediate cohorts (0.3 and 1.0 mg/g)) is “all grade 2 patients (six patients)”. Also, the “acneiform skin rash, overall by three assessment criteria” value in data set [2] (lowest dose cohort (0.3 mg/g)) is on record as “improved in all patients”.
